How the values were obtained:
[1] = system: SARS-CoV-2 strains JPN/TY/WK-521 and NCGM-nCoV-05-2N; experiment: microbe, parasite or virus in culture; format: cell-based; details: for IC50: Severe acute respiratory syndrome coronavirus 2, Vero C1008, read-out: IC50 against SARS-CoV-2
SARS-CoV-2 = format: cell-based

Compound	reasonable effects against SARS-CoV-2 in the assays [1]	IC50 [1] [nM]	also measured
N=C(N)c1ccc2cc(OC(=O)c3ccc(N=C(N)N)cc3)ccc2c1 [nafamostat]	none	–	–
Cc1cccc(C)c1OCC(=O)N[C@@H](Cc1ccccc1)[C@@H](O)C[C@H](Cc1ccccc1)NC(=O)[C@H](C(C)C)N1CCCNC1=O [lopinavir]	none	–	–
O=C(Oc1cncc(Cl)c1)c1cccc2[nH]ccc12 [GRL-0920S]	–	2800 ± 300	block of infectivity and cytopathic effect of SARS-CoV-2 (FIG. 1) (SARS-CoV-2): virtually completely block the infectivity and cytopathic effect; blocking of infectivity, replication and cytopathic effect of SARS-CoV-2 (SARS-CoV-2): completely blocked the infectivity, replication, and cytopathic effect
Cc1c(O)cccc1C(=O)N[C@@H](CSc1ccccc1)[C@H](O)CN1C[C@H]2CCCC[C@H]2C[C@H]1C(=O)NC(C)(C)C [nelfinavir]	none	–	–
C=CCn1ccc2c(C(=O)Oc3cncc(Cl)c3)cccc21 [GRL-0820S]	–	15000 ± 18000	blocking of infectivity, replication and cytopathic effect of SARS-CoV-2 (SARS-CoV-2): significantly blocked the infectivity and replication; viral breakthrough (SARS-CoV-2): viral breakthrough occurred
NC(=O)c1nc(F)c[nH]c1=O [favipiravir]	none	–	–
NC(=O)c1ncn([C@@H]2O[C@H](CO)[C@@H](O)[C@H]2O)n1 [ribavirin]	none	–	–
CC(=O)Oc1ccccc1C(=O)Nc1ncc([N+](=O)[O-])s1 [nitazoxanide]	none	–	–
CCC(CC)COC(=O)[C@H](C)N[P@](=O)(OC[C@H]1O[C@@](C#N)(c2ccc3c(N)ncnn23)[C@H](O)[C@@H]1O)Oc1ccccc1 [remdesivir]	–	2600 ± 700	–
CCN(CCO)CCCC(C)Nc1ccnc2cc(Cl)ccc12 (centres unmarked) [hydroxychloroquine]	none	–	–

Source: patent US20230183207A1 (priority 2020, published 2023)
